Five molecules from PubChem BioAssay (NCI) can be followed below.

SMILES strings stand for the structures.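 Five compound concentrations were applied to cells in 96-well plates for 48 hours; endpoints were derived by simple linear interpolation of the resulting dose-response curve. Here, GI50 denotes the concentration required for 50% inhibition of growth. TGI denotes the concentration required for complete inhibition of growth.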

Test systems include CCRF-CEM leukemia; HCT-116 colon; LOX IMVI melanoma; NCI-H460 lung; NCI-H522 lung; OVCAR-8 ovarian; PC-3 prostate; SF-539 CNS; SK-MEL-28 melanoma; SR leukemia.
What all share (test): NCI tumour cell line growth inhibition, 48 h

Turning to `O=C(CN1C(=O)S/C(=C\C(Cl)=C\c2ccccc2)C1=O)NC1C=CS(=O)(=O)C1` (stereo not given), the GI50 was 0.327 µM with CCRF-CEM leukemia; 0.377 µM in the assay with HCT-116 colon; 0.24 µM in the assay on LOX IMVI melanoma; 1.86 µM with NCI-H460 lung; 0.299 µM with NCI-H522 lung; 0.939 µM in the assay on OVCAR-8 ovarian. Also, the GI50 in the assay on PC-3 prostate is 2.15 µM; in the assay with SF-539 CNS it was 2 µM; in the assay with SK-MEL-28 melanoma it was 1.81 µM; with SR leukemia, 0.29 µM. For the same molecule, the TGI with CCRF-CEM leukemia was over 100 µM; in the assay on HCT-116 colon, 1.83 µM; in the assay on LOX IMVI melanoma it was 0.624 µM; with NCI-H460 lung, 6.36 µM; in the assay on NCI-H522 lung it was 1.33 µM; with OVCAR-8 ovarian it was over 100 µM. In addition, the TGI in the assay with PC-3 prostate was 7.33 µM; with SF-539 CNS, 4.76 µM; in the assay with SK-MEL-28 melanoma, 3.9 µM; with SR leukemia it was over 100 µM.

With `COc1cc2cc(Oc3ccc(NC(=O)Nc4ccc(Cl)c(Cl)c4)cc3)c(C)nc2cc1OC`, the GI50 in the assay with CCRF-CEM leukemia is 2.38 µM; in the assay with HCT-116 colon, 2.26 µM; in the assay on LOX IMVI melanoma it was 3.45 µM; with NCI-H460 lung, 2.46 µM; in the assay on NCI-H522 lung, 1.74 µM; in the assay on OVCAR-8 ovarian, 3.54 µM. Besides, the GI50 in the assay on PC-3 prostate was 1.53 µM; in the assay with SF-539 CNS, 5.18 µM; in the assay on SK-MEL-28 melanoma, 3.77 µM; in the assay with SR leukemia, 3.1 µM. Besides, the TGI with CCRF-CEM leukemia stood at 14 µM; in the assay on HCT-116 colon, 10.5 µM; with LOX IMVI melanoma, 14.6 µM; in the assay on NCI-H460 lung, 10.1 µM; in the assay on NCI-H522 lung, 8.43 µM; in the assay on OVCAR-8 ovarian, 12.9 µM. Further, the TGI in the assay on PC-3 prostate is 5.13 µM; in the assay with SF-539 CNS, 22.3 µM; in the assay with SK-MEL-28 melanoma, 14.7 µM; in the assay on SR leukemia, 10.3 µM.

In the case of `O=C1Cc2cc(C(=O)NC3C[C@H]4CC[C@@H](C3)N4S(=O)(=O)CC3CCN(CCCC(F)(F)F)CC3)c(Cl)cc2N1` (stereo not given in full), the GI50 in the assay on CCRF-CEM leukemia, in the assay on HCT-116 colon, in the assay with LOX IMVI melanoma, in the assay on NCI-H460 lung, in the assay on NCI-H522 lung and in the assay with OVCAR-8 ovarian was over 100 µM throughout. In addition, the GI50 with PC-3 prostate was over 100 µM; in the assay with SF-539 CNS it was over 100 µM; in the assay with SK-MEL-28 melanoma it was over 100 µM; in the assay on SR leukemia, 26.5 µM. Further, the TGI in the assay with CCRF-CEM leukemia, in the assay on HCT-116 colon, with LOX IMVI melanoma, in the assay with NCI-H460 lung, in the assay with NCI-H522 lung and in the assay on OVCAR-8 ovarian was over 100 µM each time. Besides, the TGI with PC-3 prostate, in the assay with SF-539 CNS, with SK-MEL-28 melanoma and with SR leukemia was over 100 µM in each case.

On to `Cc1ccc(NC(=O)C(=O)CC(=O)c2sc(Nc3c(C)cccc3C)nc2C)cc1C`, for which the TGI with CCRF-CEM leukemia, with HCT-116 colon, with LOX IMVI melanoma, in the assay with NCI-H460 lung, with NCI-H522 lung and in the assay with OVCAR-8 ovarian was over 100 µM throughout. Besides, the TGI in the assay with PC-3 prostate, in the assay on SF-539 CNS, in the assay with SK-MEL-28 melanoma and with SR leukemia was over 100 µM in each case.

In the case of `O=C1NC(=NCCCc2ccccc2)S/C1=C\c1ccc2ncccc2c1`, the GI50 in the assay on CCRF-CEM leukemia was 7.11 µM; in the assay on HCT-116 colon, 3.6 µM; in the assay with LOX IMVI melanoma, 5.12 µM; in the assay on NCI-H460 lung, 4.08 µM; in the assay on NCI-H522 lung, 4.47 µM; in the assay with OVCAR-8 ovarian, 5.94 µM. For the same molecule, the GI50 in the assay on PC-3 prostate is 5.62 µM; with SF-539 CNS, 4.05 µM; in the assay on SK-MEL-28 melanoma, 6.51 µM; in the assay with SR leukemia it was 3.73 µM. The TGI with CCRF-CEM leukemia is over 25 µM; in the assay on HCT-116 colon, 14.1 µM; with LOX IMVI melanoma it was 14.6 µM; in the assay with NCI-H460 lung, 11.8 µM; with NCI-H522 lung, 9.17 µM; in the assay with OVCAR-8 ovarian it was 16.8 µM. The TGI in the assay on PC-3 prostate was 15.9 µM; in the assay on SF-539 CNS it was 9.49 µM; with SK-MEL-28 melanoma it was 21.1 µM; in the assay on SR leukemia it was 16.5 µM.
